According to US20240376074A1, “NAMPT INHIBITORS AND USES THEREOF” (Remedy Plan, Inc., priority 2021, published 2024):

Molecular target: T1, NAMPT (Homo sapiens, UniProt P43490)
T1 construct: purchased Abcam ab221819
Test: NAMPT Activity Assay (Abcam #ab221819)
Type: biochemical
Details: purified NAMPT, percent inhibition from OD450 nm; compound concentration not given
Procedure: The NAMPT Activity Assay (Abcam #ab221819) was performed following manufacturers two-step reaction protocol. Briefly, compounds were added to a clear 96-well plate using the HP D300e Digital Dispenser. Purified NAMPT was added to all wells except the No NAMPT controls. Reaction Mix #1 was added to each well and the plate was incubated at 30*C for 1 hr followed by the addition of Reaction Mix #2. Absorbance was measured at OD450 nm using a multimode plate reader. Readings were recorded for 5 minutes and percent inhibition was calculated using: (1-(OD450 nm compound/OD450nm no drug))*100.

T1 sequence (P43490 whole entry): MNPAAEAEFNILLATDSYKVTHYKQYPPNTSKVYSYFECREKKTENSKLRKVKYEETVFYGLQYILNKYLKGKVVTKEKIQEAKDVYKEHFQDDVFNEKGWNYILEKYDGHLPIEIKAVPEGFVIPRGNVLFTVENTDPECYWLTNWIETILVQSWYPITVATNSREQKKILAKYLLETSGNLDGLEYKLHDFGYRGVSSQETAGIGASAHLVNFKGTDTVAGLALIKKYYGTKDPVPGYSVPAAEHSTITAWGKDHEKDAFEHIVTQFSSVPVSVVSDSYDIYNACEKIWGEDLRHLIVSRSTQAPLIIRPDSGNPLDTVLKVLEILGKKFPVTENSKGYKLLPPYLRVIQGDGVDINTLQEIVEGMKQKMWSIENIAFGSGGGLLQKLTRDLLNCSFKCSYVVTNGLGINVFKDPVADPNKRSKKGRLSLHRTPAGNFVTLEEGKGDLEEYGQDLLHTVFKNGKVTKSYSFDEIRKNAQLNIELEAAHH

Row | Structure (SMILES) | NAMPT Inhibition Code*
1 | CC(=O)N(CC1CC1)c1ccc(-c2ccc(C(=O)NCCCc3cnn(C)c3)cn2)cc1Cl [I-T2366, 6-[4-[acetyl(cyclopropylmethyl)amino]-3-chloro-phenyl]-N-[3-(1-methylpyrazol-4-yl)propyl]pyridine-3-carboxamide] | A (*A = <33% inhibition)
2 | CC(=O)N(CC1CC1)c1ccc(-c2ccc(C(=O)NCc3cncs3)cn2)cc1Cl [I-T2355, 6-[4-[acetyl(cyclopropylmethyl)amino]-3-chloro-phenyl]-N-(thiazol-5-ylmethyl)pyridine-3-carboxamide] | A (*A = <33% inhibition)
3 | COC(=O)c1cc(-c2ccc(C(=O)NCCCn3ccnc3)cn2)ccc1N(CC1CC1)C(C)=O [I-T2300, Methyl 2-[acetyl(cyclopropylmethyl)amino]-5-[5-(3-imidazol-1-ylpropylcarbamoyl)-2-pyridyl]benzoate] | C (C = ≥66% inhibition)
4 | COC(=O)c1cc(-c2ccc(C(=O)NCCCc3cc[nH]n3)cn2)ccc1N(CC1CC1)C(C)=O [I-T2299, Methyl 2-[acetyl(cyclopropylmethyl)amino]-5-[5-[3-(1H-pyrazol-3-yl)propylcarbamoyl]-2-pyridyl]benzoate] | C (C = ≥66% inhibition)
5 | CC(=O)N(CC1CC1)c1ccc(-c2ccc(C(=O)NCC3CCCCC3)cn2)cc1Cl [I-T2337, 6-[4-[acetyl(cyclopropylmethyl)amino]-3-chloro-phenyl]-N-(cyclohexylmethyl)pyridine-3-carboxamide] | C (C = ≥66% inhibition)
6 | COC(=O)c1cc(-c2ccc(C(=O)NCCc3cccnc3)cn2)ccc1N(CC1CC1)C(C)=O [I-T2296, Methyl 2-[acetyl(cyclopropylmethyl)amino]-5-[5-[2-(3-pyridyl)ethylcarbamoyl]-2-pyridyl]benzoate] | C (C = ≥66% inhibition)
7 | CC(=O)N(CC(F)F)c1ccc(-c2ccc(NC(=O)C3CC3c3cccnc3)cn2)cc1Cl (stereo not shown) [I-T2294, N-[6-[4-[acetyl(2,2-difluoroethyl)amino]-3-chloro-phenyl]-3-pyridyl]-2-(3-pyridyl)cyclopropane carboxamide] | C (C = ≥66% inhibition)
8 | CC(=O)N(CC1CC1)c1ccc(-c2ccc(C(=O)NCc3ccc(Br)nc3)cn2)cc1Cl [I-T2370, 6-[4-[acetyl(cyclopropylmethyl)amino]-3-chloro-phenyl]-N-[(6-bromo-3-pyridyl)methyl]pyridine-3-carboxamide] | C (C = ≥66% inhibition)
9 | CC(=O)N(CC1CC1)c1ccc(-c2ccc(C(=O)NCCc3ccsc3)cn2)cc1Cl [I-T2353, 6-[4-[acetyl(cyclopropylmethyl)amino]-3-chloro-phenyl]-N-[2-(3-thienyl)ethyl]pyridine-3-carboxamide] | C (C = ≥66% inhibition)
10 | CC(=O)N(CC(F)F)c1ccc(-c2ccc(C(=O)NCc3ccccc3)cn2)cc1Cl [I-T2284, 6-[4-[Acetyl(2,2-difluoroethyl)amino]-3-chloro-phenyl]-N-benzyl-pyridine-3-carboxamide] | A (*A = <33% inhibition)
11 | CC(=O)N(CC1CC1)c1ccc(-c2ccc(C(=O)NCCCc3cn[nH]c3)cn2)cc1Cl [I-T2269, 6-[4-[Acetyl(cyclopropylmethyl)amino]-3-chloro-phenyl]-N-[3-(1H-pyrazol-4-yl)propyl]pyridine-3-carboxamide] | C (C = ≥66% inhibition)
12 | CC(=O)N(CC1CC1)c1ccc(-c2ccc(NC(=O)COc3ccccc3)cn2)cc1Cl [I-T2328, N-[6-[4-[acetyl(cyclopropylmethyl)amino]-3-chloro-phenyl]-3-pyridyl]-2-phenoxy-acetamide] | C (C = ≥66% inhibition)
13 | CC(=O)N(CC1CC1)c1ccc(-c2ccc(C(=O)NCc3c[nH]cn3)cn2)cc1Cl [I-T2151, 6-[4-[Acetyl(cyclopropylmethyl)amino]-3-chloro-phenyl]-N-(1H-imidazol-4-ylmethyl)pyridine-3-carboxamide] | A (*A = <33% inhibition)
